Entries after “also recorded” stand apart in the source; their conditions may differ.
Key:
AKT = AKT phosphorylation in differentiated 3T3-L1 adipocytes (Western blotting); assay type: cell-based; conditions: for basal level of phosphorylation of AKT: inhibitor 1 μM alone, absence of ET-1
Protocol: (§1) Referring to FIGS. 2A, 2B, 2C, 2D, and 2E which are presented to detect the time-dependent effect of ET-1 on ET-1 signaling molecules, including ERK1 /2, JNKs, p38, […] or STAT3 proteins, the differentiated 3T3-L1 adipocytes are treated with or without 100 nM ET-1 at different time points, such as 2, 5, 15, 30, 120, and 240 minutes. After ET-1 incubation, the total protein amounts and the phosphorylation levels of each ET-1 signaling molecule are determined by Western blotting analysis.
(§2) Referring to FIGS. 3A, 3B, and 3C which are presented to further study the endothelin receptor-dependent of ET-1 on the phosphorylation of downstream signaling molecules and on resistin mRNA expression, the differentiated 3T3-L1 adipocytes are pretreated with or without either 1 μM BQ610 (an ETAR inhibitor) or 1 μM BQ788 (an endothelin type B receptor (ETBR) inhibitor) for 1 hour, and then incubated with 100 nM ET-1. After different time points of ET-1 treatment, ET-1 signaling molecules, such as ERK1/2, JNKs, P38, AKT, and STAT3 proteins, and resistin mRNA levels are determined by Western blotting analysis and PCR analysis, respectively. FIG. 3A, 3B, and 3C are presented with or without 5, 15, and 120 minutes of 100 nM ET-1 treatments, respectively.
(§3) Referring to FIGS. 4A, 4B, 4C, 4D, and 4E which are presented to study the effect of the inhibitors of ET-1 signaling molecules, the differentiated 3T3-L1 adipocytes are pretreated with or without the specific inhibitors of ERK1/2, JNK, AKT, STAT3, or p38 for 30 minutes and then incubated with 100 nM ET-1. These inhibitors comprise 1,4-diamino-2,3-dicyano-1,4-bis [2-aminophenylthio]butadiene (U0126, 25 μM; an ERK1/2 inhibitor), 2-(2-Amino-3-methoxyphenyl)-4H-1-benzopyran-4-one (PD98059, 50 μM; an ERK1/2 inhibitor), anthrapyrazolone (SP600125, 20 μM; a JNK inhibitor), SB203580 (20 μM; a p38 inhibitor), 2-(4-morpholinyl)-8-phenyl-4H-1-benzopyran-4-one (LY294002, 50 μM; a PI3K/AKT inhibitor), wortmannin (0.2 μM; a PI3K/AKT inhibitor), and tyrphostin (AG490, 20 μM; a STAT3 inhibitor). After 5, 15 and 120 minutes of 100-nM ET-1 treatment, the total amounts and the phosphorylation level of the above ET-1 signaling molecules corresponding to the ET-1 stimulated increases in resistin mRNA level are determined by Western blotting analysis.

JNKs = JNKs phosphorylation in differentiated 3T3-L1 adipocytes (Western blotting); assay type: cell-based; conditions: for basal level of phosphorylation of JNKs: inhibitor 1 μM alone, absence of ET-1; for ET-1-stimulated phosphorylation of JNKs: inhibitor 1 μM pretreated 1 hour, then 100 nM ET-1 for 5 or 15 minutes
Protocol: as §1, §2, §3

ERK1/2 = ERK1/2 phosphorylation in differentiated 3T3-L1 adipocytes (Western blotting); assay type: cell-based; conditions: for basal level of phosphorylation of ERK1/2: inhibitor 1 μM alone, absence of ET-1
Protocol: as §1, §2, §3

resistin mRNA = resistin mRNA level in differentiated 3T3-L1 adipocytes (RT-PCR, real time-PCR); assay type: cell-based, mouse; conditions: for resistin mRNA level: pretreatment with inhibitor 1 μM alone, no ET-1
Protocol: Referring to FIGS. 1A and 1B which are presented to detect the time-dependent effect of ET-1 on resistin mRNA level, the differentiated 3T3-L1 adipocytes are treated with 100 nM ET-1 at different time periods, including 0, 0.25, 0.5, 1, 2, 4, 6, 8, 12, and 24 hours, After the treatment, resistin mRNA is analyzed by the respective method of reverse transcription-polymerase chain reaction (RT-PCR) (FIG. 1A) and real time-PCR. The forward and reverse primers are [NT] and [NT] for mouse GAP DH and [NT] and [NT] for mouse resistin, respectively. […] The duration of ET-1 incubation that causes the maximum effect on resistin mRNA levels is 2 hours. Referring to FIGS. 1C and 1D which are presented to detect the concentration-dependent effect of ET-1 on resistin mRNA level, the differentiated 3T3-L1 adipocytes are treated with different concentrations of ET-1, such as 0, 10, 50, and 100 nM. After 2 hours of ET-1 incubation, resistin mRNA levels are determined by RT-PCR (FIG. 1C) and by real time-PCR (FIG. 1D). Levels of resistin mRNA are increased by 50%, 100%, and 200% after 10, 50 and 100 nM ET-1 are respectively added. According to the results, 100 nM ET-1 is used in the following embodiments of the present invention for treatment of the differentiated 3T3-L1 adipocytes. […] After different time points of ET-1 treatment, ET-1 signaling molecules, such as ERK1/2, JNKs, P38, AKT, and STAT3 proteins, and resistin mRNA levels are determined by Western blotting analysis and PCR analysis, respectively.

STAT3 = STAT3 phosphorylation in differentiated 3T3-L1 adipocytes (Western blotting); assay type: cell-based; conditions: for basal level of phosphorylation of STAT3: inhibitor 1 μM alone, absence of ET-1
Protocol: as §1, §2, §3

p38 = p38 phosphorylation in differentiated 3T3-L1 adipocytes (Western blotting); assay type: cell-based
Protocol: as §1
as §2, with “treatments, respectively. […]” for “treatments, respectively.”

resistin protein = resistin protein level in differentiated 3T3-L1 adipocytes (Western blotting); assay type: cell-based
Protocol: Referring to FIG. 4F which detects the concentration-dependent effect of ET-1 on resistin protein level, the differentiated 3T3-L1 adipocytes are treated with different concentrations of ET-1, such as 0, 10, 50, and 100 nM. After ET-1 incubation, resistin protein levels are determined by Western blotting analysis. Levels of resistin protein are increased by about 120%, 130%, and 140% after 10, 50 and 100 nM ET-1 are respectively added.

[1] = inhibitor 1 μM pretreated 1 hour, then 100 nM ET-1 for 5 or 15 minutes
[2] = inhibitor 1 μM, in the presence and absence of ET-1
[3] = inhibitor 50 μM pretreated 30 minutes, then 100 nM ET-1
[4] = inhibitor 20 μM pretreated 30 minutes, then 100 nM ET-1
[5] = 100 nM ET-1 alone for 5 minutes or 15 minutes
[6] = 100 nM ET-1, time points 2-240 minutes

With `CC(C)C[C@H](NC(=O)N1CCCCCC1)C(=O)N[C@H](Cc1cn(C=O)c2ccccc12)C(=O)N[C@H](Cc1c[nH]c2ccccc12)C(=O)O` [BQ610] the “basal level of phosphorylation of AKT” value (AKT) was “does not alter”, the “ET-1-stimulated phosphorylation of AKT” value (AKT; [1]) was “inhibits” and the “basal level of phosphorylation of JNKs” value (JNKs) was “does not alter”. For the same compound, the “ET-1-stimulated phosphorylation of JNKs” value (JNKs) was “inhibits”, the “basal level of phosphorylation of ERK1/2” value (ERK1/2) was “does not alter” and the “ET-1-stimulated phosphorylation of ERK1/2” value (ERK1/2; [1]) was “inhibits”. The “ET-1-stimulated resistin mRNA expression” value (resistin mRNA; inhibitor 1 μM pretreated 1 hour, then 100 nM ET-1 for 120 minutes) was “suppresses”, the “resistin mRNA level” value (resistin mRNA) was “does not alter” and the “basal level of phosphorylation of STAT3” value (STAT3) was “does not alter”. The “ET-1-stimulated phosphorylation of STAT3” value (STAT3; [1]) was “inhibits”.
For `CCCC[C@@H](NC(=O)[C@@H](Cc1cn(C(=O)OC)c2ccccc12)NC(=O)[C@H](CC(C)(C)C)NC(=O)N1[C@H](C)CCC[C@@H]1C)C(=O)O` [BQ788], the “basal level of phosphorylation of AKT” value (AKT) was “does not alter”, the “ET-1-stimulated phosphorylation of AKT” value (AKT; [1]) was “does not alter” and the “total amounts of AKT protein” value (AKT; [2]) was “does not alter”. For the same compound, the “basal level of phosphorylation of JNKs” value (JNKs) was “does not alter”, the “ET-1-stimulated phosphorylation of JNKs” value (JNKs) was “does not alter” and the “total amounts of JNKs protein” value (JNKs; [2]) was “does not alter”. For the same compound, the “basal level of phosphorylation of ERK1/2” value (ERK1/2) was “does not alter”, the “ET-1-stimulated phosphorylation of ERK1/2” value (ERK1/2; [1]) was “does not alter” and the “total amounts of ERK1/2 protein” value (ERK1/2; [2]) was “does not alter”. The “resistin mRNA level” value (resistin mRNA) was “does not alter”, the “basal level of phosphorylation of STAT3” value (STAT3) was “does not alter” and the “ET-1-stimulated phosphorylation of STAT3” value (STAT3; [1]) was “does not alter”. The “total amounts of STAT3 protein” value (STAT3; [2]) was “does not alter”.
For `O=c1cc(N2CCOCC2)oc2c(-c3ccccc3)cccc12` [LY294002, 2-(4-morpholinyl)-8-phenyl-4H-1-benzopyran-4-one], the “ET-1-stimulated phosphorylation of AKT” value (AKT; [3]) was “inhibited”.
`COc1cccc(-c2cc(=O)c3ccccc3o2)c1N` [PD98059, 2-(2-Amino-3-methoxyphenyl)-4H-1-benzopyran-4-one] was tested, and the “ET-1-stimulated phosphorylation of ERK1/2” value (ERK1/2; [3]) was “inhibited”.
`C[S+]([O-])c1ccc(-c2nc(-c3ccncc3)c(-c3ccc(F)cc3)[nH]2)cc1` (stereo not shown) [SB203580] was tested, and the “phosphorylation of p38” value (p38; [4]) was “not stimulated by ET-1 or inhibited”.
In the case of `N#CC(=C(N)Sc1ccccc1N)C(C#N)=C(N)Sc1ccccc1N` [U0126, 1,4-diamino-2,3-dicyano-1,4-bis [2-aminophenylthio]butadiene], the “ET-1-stimulated phosphorylation of ERK1/2” value (ERK1/2; inhibitor 25 μM pretreated 30 minutes, then 100 nM ET-1) is reported as “inhibited”.
With “ET-1: endothelin-1, one of the strongest vasoconstrictors; stimulus used on 3T3-L1 adipocytes” the “phosphorylation of AKT” value (AKT; [5]) was “increased phosphorylation”, the “phosphorylation of p38 on ET-1 stimulation” value (p38; 100 nM ET-1) was “not altered; also recorded: not stimulated” and the “time of maximum phosphorylation of JNKs” value (JNKs; [6]) was 15 min. For the same compound, the “phosphorylation of JNKs” value (JNKs; [5]) was “increased phosphorylation”, the “time of maximum phosphorylation of ERK1/2” value (ERK1/2; [6]) was 2 min and the “phosphorylation of ERK1/2” value (ERK1/2; [5]) was “increased phosphorylation”. The “increase of resistin protein levels” value (resistin protein; 10 nM ET-1) was “about 120%”, the “increase of resistin protein levels” value (resistin protein; 50 nM ET-1) was ~130% and the “increase of resistin protein levels” value (resistin protein; 100 nM ET-1) was ~140%. The “increase of resistin mRNA levels” value (resistin mRNA; 10 nM ET-1, 2 hours) was 50%, the “increase of resistin mRNA levels” value (resistin mRNA; 50 nM ET-1, 2 hours) was 100% and the “increase of resistin mRNA levels” value (resistin mRNA; 100 nM ET-1, 0.25-12 hours after treatment, differentiated 3T3-L1 adipocytes) was 100-250%. The “increase of resistin mRNA levels” value (resistin mRNA; 100 nM ET-1, 2 hours) was 200%, the “duration of ET-1 incubation that causes the maximum effect on resistin mRNA levels” value (resistin mRNA; 100 nM ET-1, time course 0-24 hours) was 2 h and the “phosphorylation of STAT3” value (STAT3; [5]) was “increased phosphorylation”.
For tyrphostin [AG490], the “ET-1-stimulated phosphorylation of STAT3” value (STAT3; [4]) was “inhibited”.

Reference: patent publication US20150045358A1, “PHARMACEUTICAL COMPOSITION FOR TREATING DISORDERS ASSOCIATED WITH INSULIN RESISTANCE” (National Central University, priority 2012, published 2015)
